Source: patent US11723948B2, “Method for treating and prognosing cancer” (INSERM (INSTITUT NATIONAL DE LA SANTE ET DE LA RECHERCHE …, priority 2015, dated 2023)

How the values were obtained:
PCTC #1 = experiment: ELISA of global DNA methylation (5-methylcytosine); assay type: cell-based, human; conditions: PCTC #1 treated during 30 days
Source text: DNA was extracted by using the QiaAmp DNA mini Kit (Qiagen, France). Next, global DNA methylation was estimated by quantifying the presence of 5-methylcytosine using Methylamp Global DNA methylation Quantification kit (Euromedex-Epigentek, France) according to the manufacturers's instructions.
The analysis of all interactions being impossible, we postulated that if P1 inhibited a large number of DNMT3A/D3A-BP interactions, an hypomethylation phenotype would be observable. To observe the putative P1-induced DNA hypomethylation, PCTC #1 were treated during 30 days with P1 (data not shown). Other DNMT inhibitors (5-aza-2-deoxycytidine (5-aza), theaflavin 3,3 digallate (a DNMT3A inhibitor, hereafter called TFD), or peptides (UP peptide, a peptide inhibiting the DNMT1/PCNA/UHRF1 interactions)) were also used as control conditions.

MCF-7 cells = conditions: non-invasive breast cancer cell line MCF-7; cited from earlier work
ZR-75-1 = conditions: non-invasive breast cancer cell line ZR-75-1; cited from earlier work
[1] = biological target: T1, DNMT3A/ISGF3γ interaction (Homo sapiens, UniProt Q00978); experiment: Competitive pull-down assay of the DNMT3A/ISGF3γ interaction; assay type: binding; conditions: for inhibition of the DNMT3A/ISGF3γ interaction: peptides pre-incubated 1 h at 37° C., FIG. 2A
T1 construct: GST
T1 sequence (Q00978 1-393): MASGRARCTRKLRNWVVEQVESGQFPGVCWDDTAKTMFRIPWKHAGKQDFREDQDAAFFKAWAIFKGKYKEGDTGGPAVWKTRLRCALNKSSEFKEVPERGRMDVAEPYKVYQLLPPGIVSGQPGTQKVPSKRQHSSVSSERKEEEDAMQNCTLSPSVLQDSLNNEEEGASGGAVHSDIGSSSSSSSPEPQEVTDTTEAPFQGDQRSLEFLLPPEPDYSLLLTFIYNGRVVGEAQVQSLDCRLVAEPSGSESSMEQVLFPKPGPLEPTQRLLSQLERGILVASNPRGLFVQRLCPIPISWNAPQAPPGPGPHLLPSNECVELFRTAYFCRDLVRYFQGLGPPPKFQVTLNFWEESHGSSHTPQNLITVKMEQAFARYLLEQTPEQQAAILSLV
Description: Pull-down assays were performed by using the GST/His Tagged-Protein Interaction Pull-Down Kits (Thermo Scientific, France). Briefly, 100 μg of bait protein were immobilized on column via an incubation at 4° C. for 1 h with gentle mixing. After washing, 1 μg of prey protein was added for 1 h at 4° C. with gentle rocking motion on a rotating platform. After washes and elution, the “bait-prey” interaction was analyzed by SDS-PAGE and Western blot methods. Competitive pull-down experimentations were realized by pre-incubating considered peptides for 1 h at 37° C.
In brief, proteins were size fractionated by sodium dodecyl sulfate-polyacrylamide gel electrophoresis. Proteins were transferred onto nitrocellulose or PVDF membrane. Saturation and blotting were realized by using SNAP I.™ Protein Detection System (Millipore, France). The detection of proteins was performed using ECL™ (Amersham Biosciences, France) and/or SuperSignal west femto Maximum Sensitivity (Thermo Scientific, France) chemilumenescence reagents. The detection of proteins was performed using the FusionX7 Imager (Fisher Scientific, France).

[2] = tested on: primary cultured tumor cells (PCTC) from GBM; experiment: Temozolomide+irradiation-induced cell death (trypan blue); assay type: cell-based, human; conditions: temozolomide 25 μM and irradiation 2 Gy
Description: Percentages of cell death were evaluated by using a Trypan Blue Stain 0.4%, and the Countess® Automated Cell Counter (Life Technologies, France). Cell death was induced using temozolomide (25 μM) and irradiation (2 Gy) such as previously described.
To evaluate the impact of the P1-induced disruption of the DNMT3A/ISGF3γ interactions on the sensitivity of apoptosis induced by a therapeutic treatment, we measured the percentage of temozolomide+irradiation-induced cell death since temozolomide (TMZ) and irradiation are conjugated in anti-GBM treatment [Cheray M et al., 2013 and Louis D et al., 2007]. […] Thus, we conclude that P1 acts as a sensitizer of the temozolomide+irradiation-induced cell death.

[3] = tested on: primary cultured tumor cells (PCTC) from GBM; experiment: Proliferation assay, doubling time; assay type: cell-based, human; conditions: counted every 24 h over 120 h
Description: Doubling time (i.e. the period of time required for a quantity to double in size) was calculated by using the Doubling Time Online Calculator website (Roth V. 2006, http://www.doubling-time.com/compute.php) and counting the proliferation of […] over 120 hours. Cell number was determined, every 24 h over 120 h, using the Countess® Automated Cell Counter (Life Technologies, France).
To estimate the impact of the P1-induced disruption of DNMT3A/ISGF3γ interactions on proliferation, we calculated the doubling time.

[4] = tested on: primary cultured tumor cells (PCTC) from GBM; experiment: Migration assay, scratch test; assay type: cell-based, human; conditions: 24 hours, mitomycin C pre-treatment
Description: Cell migration assay was performed using a scratch technique. Cells were plated in 6-well plates at 80-90%, and were treated with 10 μg/ml mitomycin C (Sigma, France) for 2 hours (in order to remove the influence of cell proliferation). Cells were then scratched. Cell migration was monitored by microscopy. The images acquired for each sample were analyzed quantitatively. For each image, distances between one side of scratch and the other were measured. By comparing the images from time 0 to the last time point (24 hours), we obtain the distance of each scratch closure on the basis of the distances that are measured.
Impact of the P1-induced disruption of the DNMT3A/ISGF3γ interactions on migration capability was next estimated by performing a scratch test assay.

[5] = tested on: primary cultured tumor cells (PCTC) from GBM; experiment: Collagen-based cell invasion assay; design: species or system human; conditions: 72 h incubation
Description: All of the procedures were followed according to the manufacturer's instructions (QCM 24-Well Collagen-Based Cell Invasion Assay, Millipore, France). In brief, 200 μl serum-free medium containing 2×10^5 cells were seeded into the invasion chamber and placed into the 24 well plate containing 500 μl complete medium. After 72 h incubation at 37° C., media was removed from the chamber, and cells were stained by putting the chamber in staining solution for 20 min at room temperature. Non-invaded cells were carefully removed from the top-side of the chamber. Stained chamber was inserted into a clean well containing 200 μl of extraction buffer for 15 min at room temperature. 100 μl extracted stained solution from the chamber was transferred into the 96 well plate and optical density was measured at 560 nm with a spectrophotometer.

[6] = biological target: T2, DNMT3A/ISGF3γ interactions (Homo sapiens, UniProt Q00978); experiment: Proximity Ligation In Situ Assay (P-LISA) in PCTC #1, DNMT3A/ISGF3γ; assay type: cell-based; conditions: PCTC #1, P-LISA 12 hr after electroporation of peptide
T2 construct: we used a PCTC (named PCTC #1); endogenous in cells; host or cells: PCTC #1 (primary cultured glioblastoma tumor cells)
T2 sequence (Q00978 1-393): T1 sequence (Q00978 1-393)
Description: Cells were cultured for 24 h on cover slip. Cells were then fixed with 4% paraformaldehyde in PBS pH7.4 for 15 min at room temperature. Permeabilization is performed with PBS containing 0.5% Triton X-100 for 20 min at room temperature. Blocking, staining, hybridization, ligation, amplification and detection steps were realized according to manufacturer's instructions (Olink Bioscience, Sweden). All incubations were performed in a humidity chamber. Amplification and detection steps were performed in dark room. Fluorescence was visualized by using the Axiovert 200M microscopy system (Zeiss, Le Pecq, France) with ApoTome module (X63 and numerial aperture 1.4). Preparations were mounted by using ProLong Gold antifade reagent with DAPI (Life Technologies, France). Pictures acquisition was realized in structured illumination microscopy. After decovolving (3.5 Huygens Essential software (SVI)), 3D view was obtained by using Amira.4.1.1 program. Finally, the images were analyzed by using the freeware “BlobFinder” available for download from www.cb.uu.se/˜amin/BlobFinder. Thus, we obtained either number of signals per nuclei since nuclei can be automatically identified.
(§1) For electroporation, NLS sequence was added to peptides. […] Electroporation efficiency for each cell line was initially determined by flow cytometry by uptake of the fluorescent dye, lucifer yellow (Sigma, France). […]

DNMT3A/GATA1 interaction = biological target: T3, DNMT3A/GATA1 interaction (Homo sapiens, UniProt P15976); experiment: P-LISA in PCTC #1, DNMT3A/GATA1; assay type: cell-based
T3 construct: endogenous in cells; host or cells: PCTC #1 (primary cultured glioblastoma tumor cells)
T3 sequence (P15976 whole entry): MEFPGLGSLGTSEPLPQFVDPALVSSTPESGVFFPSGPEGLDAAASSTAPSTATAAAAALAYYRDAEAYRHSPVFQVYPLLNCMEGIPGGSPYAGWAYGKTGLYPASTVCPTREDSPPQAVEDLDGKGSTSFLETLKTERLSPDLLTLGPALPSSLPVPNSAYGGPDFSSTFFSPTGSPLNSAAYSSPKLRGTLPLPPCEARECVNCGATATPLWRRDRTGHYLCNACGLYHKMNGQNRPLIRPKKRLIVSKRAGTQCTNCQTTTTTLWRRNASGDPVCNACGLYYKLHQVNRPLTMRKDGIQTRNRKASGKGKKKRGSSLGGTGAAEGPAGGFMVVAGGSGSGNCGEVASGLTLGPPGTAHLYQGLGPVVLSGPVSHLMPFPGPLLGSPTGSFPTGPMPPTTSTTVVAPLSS
Description: (§2) Cells were cultured for 24 h on cover slip. Cells were then fixed with 4% paraformaldehyde in PBS pH7.4 for 15 min at room temperature. Permeabilization is performed with PBS containing 0.5% Triton X-100 for 20 min at room temperature. Blocking, staining, hybridization, ligation, amplification and detection steps were realized according to manufacturer's instructions (Olink Bioscience, Sweden). All incubations were performed in a humidity chamber. Amplification and detection steps were performed in dark room. Fluorescence was visualized by using the Axiovert 200M microscopy system (Zeiss, Le Pecq, France) with ApoTome module (X63 and numerial aperture 1.4). Preparations were mounted by using ProLong Gold antifade reagent with DAPI (Life Technologies, France). Pictures acquisition was realized in structured illumination microscopy. […] Finally, the images were analyzed by using the freeware “BlobFinder” available for download from www.cb.uu.se/˜amin/BlobFinder. […]
as §1
(§3) P1 was designed to inhibit the DNMT3A/ISGF3γ interactions. […] To investigate this point, we analyzed the effect of P1 on the DNMT3A/D3A-BP interactions of interest. […]

DNMT3A/AP2γ interaction = experiment: P-LISA in PCTC #1, DNMT3A/AP2γ; assay type: cell-based, human
Description: as §2, §1, §3

DNMT3A/HDAC1 interaction = biological target: T4, DNMT3A/HDAC1 interaction (Homo sapiens, UniProt Q13547); experiment: P-LISA in PCTC #1, DNMT3A/HDAC1; assay type: cell-based
T4 construct: endogenous in cells; host or cells: PCTC #1 (primary cultured glioblastoma tumor cells)
T4 sequence (Q13547 whole entry): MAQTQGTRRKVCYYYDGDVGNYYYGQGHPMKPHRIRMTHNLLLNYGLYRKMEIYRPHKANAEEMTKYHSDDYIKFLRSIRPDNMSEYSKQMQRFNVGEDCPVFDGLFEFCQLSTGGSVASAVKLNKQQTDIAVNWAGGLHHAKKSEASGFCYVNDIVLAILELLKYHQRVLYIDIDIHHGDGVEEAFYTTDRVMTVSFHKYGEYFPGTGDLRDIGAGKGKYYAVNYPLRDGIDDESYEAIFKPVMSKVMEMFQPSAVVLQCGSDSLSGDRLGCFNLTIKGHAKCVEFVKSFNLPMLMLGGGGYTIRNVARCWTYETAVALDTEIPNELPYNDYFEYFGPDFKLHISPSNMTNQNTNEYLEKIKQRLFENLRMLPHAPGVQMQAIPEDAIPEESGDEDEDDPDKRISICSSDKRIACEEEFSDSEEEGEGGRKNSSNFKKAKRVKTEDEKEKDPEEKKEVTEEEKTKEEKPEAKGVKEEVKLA
Description: as §2, §1, §3

[7] = tested on: PCTC-GBM glioma cells having high level of DNMT3A/ISGF3γ interactions; experiment: Established subcutaneous glioma tumors in swiss nude mice; assay type: in vivo; conditions: treatment from tumor volume 100 mm^3, after 3 weeks of treatment; FIG. 3B
Description: A. Design of the experiment. […] Then, mice were treated with indicated treatment. D: day, w: week, it: intra-tumoral, ip: Intraperitoneal.
B. Graph illustrates the impact of the 4 considered treatments on tumor weight of established tumors. Open circles represent mice. Black circles represent the average±standard deviation obtained for each treatment. p values were obtained by performing a t test.
Cultured cells were harvested by trypsinization, washed and resuspended in saline buffer. Cell suspensions were injected s.c. as 2.106 cells in 0.05 ml of PBS with equal volume of matrigel matrix (Becton Dickinson, France) in the flank of 7/8-week-old Nude NMRI-nu female mice (Janvier, France). After tumor establishment, mice were treated with temozolomide and/or peptides via intra-tumor injection (it). To obtain tumor weigh, each tumor was surgically removed and is weighed. All experimental procedures using animals were realized in accordance with the guidelines of Institutional Animal Care and the French National Committee of Ethics.
Standard anti-GBM treatment using temozolomide as chemotherapeutic agent, we next investigated the effect of a treatment associating P1 peptide with TMZ in a swiss nude mice model of established tumors.

MGMT = experiment: qMSP of MGMT methylation; assay type: cell-based, human; conditions: cells treated with peptide
Source text: In glioma, MGMT methylation is associated with a good responsive of anti-glioma treatment including TMZ and irradiation [Esteller M et al., 2000 and Hegi M et al., 2005].

| DNMT3A/ISGF3γ interaction with increasing peptide concentration ([1]; increasing concentration of peptide, FIG. 2B) | red dots representing the DNMT3A/ISGF3γ interactions [6] | integrity of the DNMT3A/GATA1 interaction (DNMT3A/GATA1 interaction) | integrity of the DNMT3A/HDAC1 interaction (DNMT3A/HDAC1 interaction) | Molecule | global level of 5-methylcytosine (PCTC #1) | invasiveness (MCF-7 cells) | invasiveness (ZR-75-1) | inhibition of the DNMT3A/ISGF3γ interaction [1] | percentage of temozolomide+irradiation-induced cell death [2] | doubling time of cells [3] | cell migration [4] | cell invasion [5] | integrity of the DNMT3A/AP2γ interaction (DNMT3A/AP2γ interaction) | percentage of cell death compared with the other treatment ([2]; P1 versus TDF) | tumor growth (tumor weight/volume) of established tumors [7] | methylation level of MGMT (MGMT) |
| --- | --- | --- | --- | --- | --- | --- | --- | --- | --- | --- | --- | --- | --- | --- | --- | --- |
|  |  |  |  | Nc1ncn([C@H]2C[C@H](O)[C@@H](CO)O2)c(=O)n1 [5-aza, 5-aza-2-deoxycytidine] | decreased the global level of DNA methylation | increased the invasiveness | increased the invasiveness |  |  |  |  |  |  |  |  |  |
|  |  |  |  | RPMPRLTAQAGAPYYI (Synthetic P1mut) [P1^mut, mutated P1 peptide, reference compound] |  |  |  | does not inhibit the DNMT3A/ISGF3γ interaction |  |  |  |  |  |  |  |  |
|  |  |  |  | O=C(O[C@@H]1Cc2c(O)cc(O)cc2O[C@@H]1c1cc(O)c(=O)c2c(O)c(O)cc([C@H]3Oc4cc(O)cc(O)c4C[C@H]3OC(=O)c3cc(O)c(O)c(O)c3)c2c1)c1cc(O)c(O)c(O)c1 [TFD, theaflavin 3,3 digallate, reference compound] | decreased the global level of DNA methylation |  |  |  | increased | no effect | had no effect on cell migration | promoted the cell invasion |  |  |  |  |
| decreased | decreased | no effect | no effect | RPMPRLTFQAGDPYYI (Synthetic P1) | had not effect |  |  | inhibited the DNMT3A/ISGF3γ interaction | increased | no effect | decreased cell migration | unmodified the cell invasion characteristic | no effect | higher than the one obtained with TDF | no statistical difference | remains unchanged |
